How the values were obtained:
Assay in all cases: cells
LOX IMVI = assay type: functional, cell-based, Homo sapiens; settings: Homo sapiens, LOX IMVI
Description: SANGER: Inhibition of human LOXIMVI cell growth in a cell viability assay.

KY821 = assay type: functional, cell-based, Homo sapiens; settings: Homo sapiens, KY821;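 also: growth inhibition of human KY821 cells, read out by a cell viability assay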
Description: SANGER: Inhibition of human KY821 cell growth in a cell viability assay.

C8166 = assay type: functional, cell-based, Homo sapiens; settings: Homo sapiens, C8166;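 also: growth inhibition of human C8166 cells measured by a cell viability assay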
Description: SANGER: Inhibition of human C8166 cell growth in a cell viability assay.

KGN = assay type: functional, cell-based, Homo sapiens; settings: Homo sapiens, KGN;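 also: growth inhibition of KGN cells, read out with a cell viability assay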
Description: SANGER: Inhibition of human KGN cell growth in a cell viability assay.

BB49-HNC = assay type: functional, cell-based, Homo sapiens; settings: Homo sapiens, BB49-HNC;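 also: cell viability assay read-out, reported as inhibition of BB49-HNC cell growth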
Description: SANGER: Inhibition of human BB49-HNC cell growth in a cell viability assay.

BB65-RCC = assay type: functional, cell-based, Homo sapiens; settings: Homo sapiens, BB65-RCC;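 also: growth inhibition of the cell line, measured with a cell viability assay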
Description: SANGER: Inhibition of human BB65-RCC cell growth in a cell viability assay.

SHP77 = assay type: functional, cell-based, Homo sapiens, SHP-77; settings: Homo sapiens, SHP77;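 also: growth inhibition of human SHP-77 cells measured by a cell viability assay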
Description: SANGER: Inhibition of human SHP-77 cell growth in a cell viability assay.

LC-2-ad = assay type: functional, cell-based, Homo sapiens; settings: Homo sapiens, LC-2-ad;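 also: growth inhibition of human LC-2-ad cells, read out with a cell viability assay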
Description: SANGER: Inhibition of human LC-2-ad cell growth in a cell viability assay.

JAR = assay type: functional, cell-based, Homo sapiens; settings: Homo sapiens, JAR;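 also: growth inhibition of human JAR cells determined with a cell viability assay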
Description: SANGER: Inhibition of human JAR cell growth in a cell viability assay.

DEL = assay type: functional, cell-based, Homo sapiens; settings: Homo sapiens, DEL;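 also: growth inhibition of the human DEL cell line, read out with a cell viability assay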
Description: SANGER: Inhibition of human DEL cell growth in a cell viability assay.

KE-37 = assay type: functional, cell-based, Homo sapiens; settings: Homo sapiens, KE-37;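 also: growth inhibition of KE-37 cells, read out with a cell viability assay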
Description: SANGER: Inhibition of human KE-37 cell growth in a cell viability assay.

DB = assay type: functional, cell-based, Homo sapiens; settings: Homo sapiens, DB
Description: SANGER: Inhibition of human DB cell growth in a cell viability assay.

RS4-11 = assay type: functional, cell-based, Homo sapiens; settings: Homo sapiens, RS4-11;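 also: growth inhibition of RS4-11 cells, read out by a cell viability assay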
Description: SANGER: Inhibition of human RS4-11 cell growth in a cell viability assay.

CGTH-W-1 = assay type: functional, cell-based, Homo sapiens; settings: Homo sapiens, CGTH-W-1;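 also: growth inhibition of human CGTH-W-1 cells measured by cell viability assay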
Description: SANGER: Inhibition of human CGTH-W-1 cell growth in a cell viability assay.

HH = assay type: functional, cell-based, Homo sapiens; settings: Homo sapiens, HH
Description: SANGER: Inhibition of human HH cell growth in a cell viability assay.

NCI-H1963 = assay type: functional, cell-based, Homo sapiens; settings: Homo sapiens, NCI-H1963;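 also: cell growth inhibition of the human line, determined with a cell viability assay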
Description: SANGER: Inhibition of human NCI-H1963 cell growth in a cell viability assay.

Mo = assay type: functional, cell-based, Homo sapiens; settings: Homo sapiens, Mo
Description: SANGER: Inhibition of human Mo-T cell growth in a cell viability assay.

MSTO-211H = assay type: functional, cell-based, Homo sapiens; settings: Homo sapiens, MSTO-211H
Description: SANGER: Inhibition of human MSTO-211H cell growth in a cell viability assay.

NOS-1 = assay type: functional, cell-based, Homo sapiens; settings: Homo sapiens, NOS-1;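 also: growth inhibition of the human NOS-1 cell line, read out with a cell viability assay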
Description: SANGER: Inhibition of human NOS-1 cell growth in a cell viability assay.

HCC2218 = assay type: functional, cell-based, Homo sapiens; settings: Homo sapiens, HCC2218;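 also: cell viability assay read-out, with IC50 given as the concentration that inhibits growth of the cell line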
Description: SANGER: Inhibition of human HCC2218 cell growth in a cell viability assay.

DOHH-2 = assay type: functional, cell-based, Homo sapiens; settings: Homo sapiens, DOHH-2;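 also: growth inhibition of human DOHH-2 cells, read out with a cell viability assay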
Description: SANGER: Inhibition of human DOHH-2 cell growth in a cell viability assay.

LAN-6 = assay type: functional, cell-based, Homo sapiens; settings: Homo sapiens, LAN-6;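 also: growth inhibition of LAN-6 cells, determined with a cell viability assay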
Description: SANGER: Inhibition of human LAN-6 cell growth in a cell viability assay.

COLO-829 = assay type: functional, cell-based, Homo sapiens; settings: Homo sapiens, COLO-829
Description: SANGER: Inhibition of human COLO-829 cell growth in a cell viability assay.

KG-1 = assay type: functional, cell-based, Homo sapiens; settings: Homo sapiens, KG-1;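 also: growth inhibition of KG-1 cells, read out by a cell viability assay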
Description: SANGER: Inhibition of human KG-1 cell growth in a cell viability assay.

LU-139 = assay type: functional, cell-based, Homo sapiens; settings: Homo sapiens, LU-139
Description: SANGER: Inhibition of human LU-139 cell growth in a cell viability assay.

LU-134-A = assay type: functional, cell-based, Homo sapiens; settings: Homo sapiens, LU-134-A
Description: SANGER: Inhibition of human LU-134-A cell growth in a cell viability assay.

TE-10 = assay type: functional, cell-based, Homo sapiens; settings: Homo sapiens, TE-10;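 also: growth inhibition of TE-10 cells, measured by a cell viability assay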
Description: SANGER: Inhibition of human TE-10 cell growth in a cell viability assay.

MZ2-MEL = assay type: functional, cell-based, Homo sapiens; settings: Homo sapiens, MZ2-MEL;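 also: growth inhibition of MZ2-MEL cells read out with a cell viability assay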
Description: SANGER: Inhibition of human MZ2-MEL cell growth in a cell viability assay.

TE-8 = assay type: functional, cell-based, Homo sapiens; settings: Homo sapiens, TE-8;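 also: growth inhibition of TE-8 cells, measured with a cell viability readout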
Description: SANGER: Inhibition of human TE-8 cell growth in a cell viability assay.

MEG-01 = assay type: functional, cell-based, Homo sapiens; settings: Homo sapiens, MEG-01;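 also: growth inhibition of MEG-01 cells, read out by a cell viability assay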
Description: SANGER: Inhibition of human MEG-01 cell growth in a cell viability assay.

P30-OHK = assay type: functional, cell-based, Homo sapiens; settings: Homo sapiens, P30-OHK;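 also: growth inhibition of the P30-OHK cell line, read out with a cell viability assay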
Description: SANGER: Inhibition of human P30-OHK cell growth in a cell viability assay.

NB69 = assay type: functional, cell-based, Homo sapiens; settings: Homo sapiens, NB69;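 also: growth inhibition of NB69 cells, determined by a cell viability assay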
Description: SANGER: Inhibition of human NB69 cell growth in a cell viability assay.

IST-MES1 = assay type: functional, cell-based, Homo sapiens; settings: Homo sapiens, IST-MES1;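 also: growth inhibition of IST-MES1 cells, measured with a cell viability assay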
Description: SANGER: Inhibition of human IST-MES1 cell growth in a cell viability assay.

VA-ES-BJ = assay type: functional, cell-based, Homo sapiens; settings: Homo sapiens, VA-ES-BJ;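 also: growth inhibition of the VA-ES-BJ cell line, read out by a cell viability assay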
Description: SANGER: Inhibition of human VA-ES-BJ cell growth in a cell viability assay.

EW-16 = assay type: functional, cell-based, Homo sapiens; settings: Homo sapiens, EW-16;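 also: growth inhibition of human EW-16 cells, read out as cell viability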
Description: SANGER: Inhibition of human EW-16 cell growth in a cell viability assay.

KM12 = assay type: functional, cell-based, Homo sapiens; settings: Homo sapiens, KM12;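 also: KM12 cell growth inhibition, read out with a cell viability assay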
Description: SANGER: Inhibition of human KM12 cell growth in a cell viability assay.

LB831-BLC = assay type: functional, cell-based, Homo sapiens; settings: Homo sapiens, LB831-BLC;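 also: growth inhibition of LB831-BLC cells, read out with a cell viability assay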
Description: SANGER: Inhibition of human LB831-BLC cell growth in a cell viability assay.

NTERA-2-cl-D1 = assay type: functional, cell-based, Homo sapiens; settings: Homo sapiens, NTERA-2-cl-D1;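 also: inhibition of cell growth, measured with a cell viability assay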
Description: SANGER: Inhibition of human NTERA-S-cl-D1 cell growth in a cell viability assay.

DMS-114 = assay type: functional, cell-based, Homo sapiens; settings: Homo sapiens, DMS-114
ES7 = assay type: functional, cell-based, Homo sapiens; settings: Homo sapiens, ES7;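 also: growth inhibition of cultured human ES7 cells, read out as cell viability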
Description: SANGER: Inhibition of human ES7 cell growth in a cell viability assay.

SK-MEL-2 = assay type: functional, cell-based, Homo sapiens; settings: Homo sapiens, SK-MEL-2;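 also: growth inhibition of human SK-MEL-2 cells measured with a cell viability assay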
Description: SANGER: Inhibition of human SK-MEL-2 cell growth in a cell viability assay.

RCC10RGB = assay type: functional, cell-based, Homo sapiens; settings: Homo sapiens, RCC10RGB;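 also: growth inhibition of human RCC10RGB cells, read out by a cell viability assay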
Description: SANGER: Inhibition of human RCC10RGB cell growth in a cell viability assay.

HEL = assay type: functional, cell-based, Homo sapiens; settings: Homo sapiens, HEL;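 also: growth inhibition of HEL cells, read out with a cell viability assay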
Description: SANGER: Inhibition of human HEL cell growth in a cell viability assay.

ES4 = assay type: functional, cell-based, Homo sapiens; settings: Homo sapiens, ES4;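 also: growth inhibition of human ES4 cells, read out by a cell viability assay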
Description: SANGER: Inhibition of human ES4 cell growth in a cell viability assay.

ES3 = assay type: functional, cell-based, Homo sapiens; settings: Homo sapiens, ES3;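 also: growth inhibition of ES3 cells, read out with a cell viability assay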
Description: SANGER: Inhibition of human ES3 cell growth in a cell viability assay.

KYSE-270 = assay type: functional, cell-based; settings: Homo sapiens;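 also: cell growth inhibition measured with a viability assay in the human KYSE-270 line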
Description: SANGER: Inhibition of human KYSE-270 cell growth in a cell viability assay.

K562 = assay type: functional, cell-based, Homo sapiens; settings: Homo sapiens, K562
Description: SANGER: Inhibition of human K-562 cell growth in a cell viability assay.

LAMA-84 = assay type: functional, cell-based, Homo sapiens; settings: Homo sapiens, LAMA-84;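 also: growth inhibition of LAMA-84 cells, read out with a cell viability assay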
Description: SANGER: Inhibition of human LAMA-84 cell growth in a cell viability assay.

TGBC24TKB = assay type: functional, cell-based; settings: Homo sapiens;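 also: growth inhibition of human TGBC24TKB cells, read out with a cell viability assay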
Description: SANGER: Inhibition of human TGBC24TKB cell growth in a cell viability assay.

K5 = assay type: functional, cell-based, Homo sapiens; settings: Homo sapiens, K5
Description: SANGER: Inhibition of human K5 cell growth in a cell viability assay.

Measured: IC50

COC(=O)[C@H](CCSC)NC(=O)c1ccc(NC[C@@H](N)CS)cc1-c1ccccc1
> 1020 nM: all assays above
